Measurements from the supplement of paper PMC11451515.

How the values were obtained:
Details in all cases: 48 h
NOMO1 [1] = experiment: cell viability relative to DMSO control; higher = less cytotoxic
Procedure, shortened: (§1)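 Viability was expressed as a per-plate percentage of DMSO wells, with cell-free wells as background. Leukemia cells (NOMO1 or SEM at 500 cells/well, P12-Ichikawa at 1000 cells/well) were adapted for at least four passages in each medium and seeded in 1536-well plates (5 μl). Library compounds in DMSO were pin-dosed over an 11-point threefold series from 47 μM to 0.79 nM, and CellTiter-Glo One luminescence was read after 48 h at 37°C.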

P12-Ichikawa [2] = experiment: as above
Procedure, shortened: as §1

SEM cells = experiment: as above
Procedure, shortened: as §1

NOMO1 [3] = experiment: AUC of viability dose-response curve (% viability x log10 dose units); higher = less sensitive
Procedure, shortened: (§2)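 Viability of medium-adapted leukemia cells was measured by CellTiter-Glo One luminescence after 48 h at 37°C with library compounds in DMSO. Doses were 11 threefold steps from 47 μM to 0.79 nM, in 1536-well plates at 500 or 1000 cells/well. Signals were normalised per plate to DMSO and cell-free wells and fitted with a four-parameter log-logistic model on log10 dose. Area under the curve was integrated by trapezoidal rule, with curves exceeding full viability scaled and failed quality-control curves removed.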

P12-Ichikawa [4] = experiment: as above
Procedure, shortened: as §2

CNc1nc(-c2ccc3c(N)n[nH]c3c2)cc(N2C[C@@H](C(=O)NC3CCCCC3)CC[C@H]2C)n1
cell viability [%]
Details	NOMO1 [1]	P12-Ichikawa [2]	SEM cells
HPLM + 10% dialyzed FBS, 0.000781 µM	76.9	97.8	72.6
HPLM + 10% dialyzed FBS, 0.00234 µM	82.3	85.9	90
HPLM + 10% dialyzed FBS, 0.00702 µM	79.8	90.8	83.9
HPLM + 10% dialyzed FBS, 0.0211 µM	95	95.6	81.1
HPLM + 10% dialyzed FBS, 0.0632 µM	94.8	98.6	83.1
HPLM + 10% dialyzed FBS, 0.19 µM	89.2	90.8	84.7
HPLM + 10% dialyzed FBS, 0.569 µM	68.2	83.5	59.8
HPLM + 10% dialyzed FBS, 1.71 µM	64.5	76.9	57.3
HPLM + 10% dialyzed FBS, 5.12 µM	55.9	75.3	60.3
HPLM + 10% dialyzed FBS, 15.4 µM	64.2	72.3	48.5
HPLM + 10% dialyzed FBS, 46.1 µM	17.7	13.4	14.3
RPMI 5 mM glucose + 10% FBS, 0.000781 µM	73.9	76.7	89.8
RPMI 5 mM glucose + 10% FBS, 0.00234 µM	78	91.4	85.9
RPMI 5 mM glucose + 10% FBS, 0.00702 µM	76.2	82.5	102
RPMI 5 mM glucose + 10% FBS, 0.0211 µM	80.4	86.5	108
RPMI 5 mM glucose + 10% FBS, 0.0632 µM	89.3	78.6	88.8
RPMI 5 mM glucose + 10% FBS, 0.19 µM	80.3	65.6	113
RPMI 5 mM glucose + 10% FBS, 0.569 µM	77.1	64	82.1
RPMI 5 mM glucose + 10% FBS, 1.71 µM	84.2	57.7	78.8
RPMI 5 mM glucose + 10% FBS, 5.12 µM	69.9	54.9	71.5
RPMI 5 mM glucose + 10% FBS, 15.4 µM	73.8	51	47.9
RPMI 5 mM glucose + 10% FBS, 46.1 µM	19	12.8	2.66
RPMI 5 mM glucose + 10% dialyzed FBS, 0.000781 µM	75.9	83.5	80.6
RPMI 5 mM glucose + 10% dialyzed FBS, 0.00234 µM	91.8	86.6	90.7
RPMI 5 mM glucose + 10% dialyzed FBS, 0.00702 µM	79.2	79.9	76.8
RPMI 5 mM glucose + 10% dialyzed FBS, 0.0211 µM	92.5	86.5	76.1
RPMI 5 mM glucose + 10% dialyzed FBS, 0.0632 µM	90.2	88.4	79.4
RPMI 5 mM glucose + 10% dialyzed FBS, 0.19 µM	85.5	69.9	83.1
RPMI 5 mM glucose + 10% dialyzed FBS, 0.569 µM	70.3	65.5	71.2
RPMI 5 mM glucose + 10% dialyzed FBS, 1.71 µM	70.8	63.5	57.9
RPMI 5 mM glucose + 10% dialyzed FBS, 5.12 µM	68.2	59.8	63.1
RPMI 5 mM glucose + 10% dialyzed FBS, 15.4 µM	68.2	52.1	50.7
RPMI 5 mM glucose + 10% dialyzed FBS, 46.1 µM	29.7	27.8	10.9

AUC of viability dose-response curve
Details	HPLM + 10% dialyzed FBS	RPMI 5 mM glucose + 10% FBS	RPMI 5 mM glucose + 10% dialyzed FBS
NOMO1 [3]	350	359	364
P12-Ichikawa [4]	395	319	336

Cc1cn2cc(C(=O)N(C)CCO)cc(N[C@@H]3CCOc4cccc(C)c43)c2n1
cell viability [%]
Details	NOMO1 [1]	P12-Ichikawa [2]	SEM cells
HPLM + 10% dialyzed FBS, 0.000781 µM	93.8	107	90.6
HPLM + 10% dialyzed FBS, 0.00234 µM	105	106	107
HPLM + 10% dialyzed FBS, 0.00702 µM	112	109	106
HPLM + 10% dialyzed FBS, 0.0211 µM	118	112	101
HPLM + 10% dialyzed FBS, 0.0632 µM	122	111	105
HPLM + 10% dialyzed FBS, 0.19 µM	115	119	107
HPLM + 10% dialyzed FBS, 0.569 µM	110	118	113
HPLM + 10% dialyzed FBS, 1.71 µM	131	115	114
HPLM + 10% dialyzed FBS, 5.12 µM	119	119	109
HPLM + 10% dialyzed FBS, 15.4 µM	108	110	113
HPLM + 10% dialyzed FBS, 46.1 µM	130	117	104
RPMI 5 mM glucose + 10% FBS, 0.000781 µM	96.2	105	84.3
RPMI 5 mM glucose + 10% FBS, 0.00234 µM	108	119	88.8
RPMI 5 mM glucose + 10% FBS, 0.00702 µM	107	107	75
RPMI 5 mM glucose + 10% FBS, 0.0211 µM	104	113	87.1
RPMI 5 mM glucose + 10% FBS, 0.0632 µM	105	118	80.7
RPMI 5 mM glucose + 10% FBS, 0.19 µM	106	117	82.9
RPMI 5 mM glucose + 10% FBS, 0.569 µM	113	115	95.8
RPMI 5 mM glucose + 10% FBS, 1.71 µM	111	123	81.1
RPMI 5 mM glucose + 10% FBS, 5.12 µM	122	115	87.2
RPMI 5 mM glucose + 10% FBS, 15.4 µM	117	105	67.6
RPMI 5 mM glucose + 10% FBS, 46.1 µM	129	114	81.5
RPMI 5 mM glucose + 10% dialyzed FBS, 0.000781 µM	105	106	88.9
RPMI 5 mM glucose + 10% dialyzed FBS, 0.00234 µM	104	109	93.7
RPMI 5 mM glucose + 10% dialyzed FBS, 0.00702 µM	114	105	90
RPMI 5 mM glucose + 10% dialyzed FBS, 0.0211 µM	130	116	110
RPMI 5 mM glucose + 10% dialyzed FBS, 0.0632 µM	114	118	95.3
RPMI 5 mM glucose + 10% dialyzed FBS, 0.19 µM	110	114	113
RPMI 5 mM glucose + 10% dialyzed FBS, 0.569 µM	122	118	94.1
RPMI 5 mM glucose + 10% dialyzed FBS, 1.71 µM	117	115	106
RPMI 5 mM glucose + 10% dialyzed FBS, 5.12 µM	115	110	108
RPMI 5 mM glucose + 10% dialyzed FBS, 15.4 µM	128	118	95.6
RPMI 5 mM glucose + 10% dialyzed FBS, 46.1 µM	129	109	94.9

AUC of viability dose-response curve
Details	HPLM + 10% dialyzed FBS	RPMI 5 mM glucose + 10% FBS	RPMI 5 mM glucose + 10% dialyzed FBS
NOMO1 [3]	462	422	443
P12-Ichikawa [4]	465	470	469

CCCOc1ccc(C(=O)OCCN(CC)CC)cc1N
cell viability [%]
Details	NOMO1 [1]	P12-Ichikawa [2]	SEM cells
HPLM + 10% dialyzed FBS, 0.000781 µM	109	106	85.3
HPLM + 10% dialyzed FBS, 0.00234 µM	124	116	105
HPLM + 10% dialyzed FBS, 0.00702 µM	124	79.2	29.3
HPLM + 10% dialyzed FBS, 0.0211 µM	121	113	105
HPLM + 10% dialyzed FBS, 0.0632 µM	140	122	104
HPLM + 10% dialyzed FBS, 0.19 µM	130	119	118
HPLM + 10% dialyzed FBS, 0.569 µM	132	122	122
HPLM + 10% dialyzed FBS, 1.71 µM	139	123	104
HPLM + 10% dialyzed FBS, 5.12 µM	121	125	108
HPLM + 10% dialyzed FBS, 15.4 µM	112	119	114
HPLM + 10% dialyzed FBS, 46.1 µM	106	118	97.7
RPMI 5 mM glucose + 10% FBS, 0.000781 µM	107	104	94.6
RPMI 5 mM glucose + 10% FBS, 0.00234 µM	115	130	110
RPMI 5 mM glucose + 10% FBS, 0.00702 µM	122	69.2	10.1
RPMI 5 mM glucose + 10% FBS, 0.0211 µM	123	112	118
RPMI 5 mM glucose + 10% FBS, 0.0632 µM	107	129	115
RPMI 5 mM glucose + 10% FBS, 0.19 µM	120	128	107
RPMI 5 mM glucose + 10% FBS, 0.569 µM	113	130	114
RPMI 5 mM glucose + 10% FBS, 1.71 µM	111	126	116
RPMI 5 mM glucose + 10% FBS, 5.12 µM	123	133	105
RPMI 5 mM glucose + 10% FBS, 15.4 µM	118	115	120
RPMI 5 mM glucose + 10% FBS, 46.1 µM	118	120	96.3
RPMI 5 mM glucose + 10% dialyzed FBS, 0.000781 µM	111	100	80
RPMI 5 mM glucose + 10% dialyzed FBS, 0.00234 µM	127	115	88
RPMI 5 mM glucose + 10% dialyzed FBS, 0.00702 µM	115	72.8	23.2
RPMI 5 mM glucose + 10% dialyzed FBS, 0.0211 µM	118	111	104
RPMI 5 mM glucose + 10% dialyzed FBS, 0.0632 µM	120	125	99.3
RPMI 5 mM glucose + 10% dialyzed FBS, 0.19 µM	128	123	104
RPMI 5 mM glucose + 10% dialyzed FBS, 0.569 µM	121	123	95.8
RPMI 5 mM glucose + 10% dialyzed FBS, 1.71 µM	119	122	98.1
RPMI 5 mM glucose + 10% dialyzed FBS, 5.12 µM	117	130	106
RPMI 5 mM glucose + 10% dialyzed FBS, 15.4 µM	131	127	102
RPMI 5 mM glucose + 10% dialyzed FBS, 46.1 µM	121	110	85.3

AUC of viability dose-response curve
Details	HPLM + 10% dialyzed FBS	RPMI 5 mM glucose + 10% FBS	RPMI 5 mM glucose + 10% dialyzed FBS
NOMO1 [3]	465	468	464
P12-Ichikawa [4]	453	448	446
